These results are taken from patent publication US10626112B2, “Heterocyclic sulfonamide derivative and medicine comprising same” (EA PHARMA CO., LTD., priority 2014, dated 2020).

human TRPA1, sequence (O75762 whole entry): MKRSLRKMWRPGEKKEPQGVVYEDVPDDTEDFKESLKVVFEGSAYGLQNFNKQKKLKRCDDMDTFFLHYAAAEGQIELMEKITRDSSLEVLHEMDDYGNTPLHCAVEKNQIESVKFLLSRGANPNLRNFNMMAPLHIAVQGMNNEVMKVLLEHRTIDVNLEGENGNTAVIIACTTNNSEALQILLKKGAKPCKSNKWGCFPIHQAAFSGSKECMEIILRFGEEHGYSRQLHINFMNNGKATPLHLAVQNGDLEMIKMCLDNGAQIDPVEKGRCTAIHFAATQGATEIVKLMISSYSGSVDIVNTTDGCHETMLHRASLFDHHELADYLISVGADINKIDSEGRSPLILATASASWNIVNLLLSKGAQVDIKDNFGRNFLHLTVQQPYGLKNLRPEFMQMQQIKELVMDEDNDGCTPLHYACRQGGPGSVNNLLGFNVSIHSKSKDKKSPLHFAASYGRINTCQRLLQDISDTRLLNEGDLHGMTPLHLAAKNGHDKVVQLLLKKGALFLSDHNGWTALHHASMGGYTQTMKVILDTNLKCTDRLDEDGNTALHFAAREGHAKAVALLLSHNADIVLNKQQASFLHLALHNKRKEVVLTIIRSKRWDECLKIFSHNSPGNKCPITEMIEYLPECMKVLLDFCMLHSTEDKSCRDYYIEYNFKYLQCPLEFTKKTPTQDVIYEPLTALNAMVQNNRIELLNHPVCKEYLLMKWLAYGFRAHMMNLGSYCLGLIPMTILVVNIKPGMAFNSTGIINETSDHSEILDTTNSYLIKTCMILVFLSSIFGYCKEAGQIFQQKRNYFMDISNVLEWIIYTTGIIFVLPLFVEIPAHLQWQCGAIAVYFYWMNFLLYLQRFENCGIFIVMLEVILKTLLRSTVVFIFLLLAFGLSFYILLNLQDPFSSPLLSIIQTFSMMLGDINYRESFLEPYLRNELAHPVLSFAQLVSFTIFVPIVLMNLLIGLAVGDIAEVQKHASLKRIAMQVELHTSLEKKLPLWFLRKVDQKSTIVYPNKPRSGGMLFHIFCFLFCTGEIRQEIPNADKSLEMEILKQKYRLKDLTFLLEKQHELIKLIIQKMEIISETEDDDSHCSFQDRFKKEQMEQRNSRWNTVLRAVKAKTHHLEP

The target of this experiment is human TRPA1 (Homo sapiens (Human), UniProt O75762). The experiment is described as follows: Measurement of TRPA1 antagonist activity (1): intracellular calcium increase. Format: cell-based. The settings on record: 293T cells transfected with human TRPA1 expression plasmid; allylisothiocyanate 20 μM stimulation; intracellular calcium fluorescence; read-out: hTRPA1 IC50. The text has this:
Measurement of TRPA1 Antagonist Activity (1)
Human TRPA1 Expression Plasmid
As cDNA encoding human TRPA1 (GenBank accession No. […]), a commercially available product was purchased (manufactured by Kazusa DNA Research Institute, clone No.: pFN21AB7348, item No.: FHC07217). Using this as a template, full-length human TRPA1 gene was amplified using the primer sequences shown below, by reaction using DNA polymerase (manufactured by Stratagene, trade name: PfuUltra High-Fidelity DNA Polymerase).
A recognition site (underlined) of restriction enzyme HindIII was added to the 5′ side, and XbaI site (underlined) was added to the 3′ side, and GTT of the template sequence was changed to termination codon TAG (bold). The obtained double stranded DNA was enzyme-digested with HindIII and XbaI, and introduced into the multicloning site of expression plasmid pcDNA3.1/zeo(+) (manufactured by Invitrogen) to construct a human TRPA1 expression plasmid.
Human embryonic kidney-derived 293T cells were cultured in Dulbecco's Modified Eagle Medium containing 10% fetal bovine serum, 10 unit penicillin, and 10 μg streptomycin, plated on a petri dish having a diameter of 10 cm at 3×10^6 cells, and cultured for 24 hr in a CO2 incubator. A reduced serum medium (manufactured by Invitrogen, trade name: OPTI-MEM, 600 μL), a gene transfer reagent (manufactured by Mirus Bio, trade name: Mirus TransIT-293, 18 μL), and human TRPA1 expression plasmid (6 μg) were mixed, the total amount of the mixture was added to the cells on the petri dish to allow for gene transfer. The cells were recovered about for 8 hr later, plated on a poly-D-lysine coated 384 well black/clear bottom plate at 12,000 cells/well, and cultured overnight.
Measurement of Intracellular Calcium Increase
The 384 well plate was recovered, and the medium was removed. A calcium-bonded fluorescent indicator (manufactured by Molecular Device, trade name: Calcium4 Assay Kit, 38 μL) dissolved in assay buffer (1×HBSS, 20 mM HEPES, pH 7.2) was added, and the cells were stained in a CO2 incubator for 1 hr. The cells were taken out at room temperature, stood for not less than 15 min, a test substance (10 μL) was added by a platereader FDSS7000 (Hamamatsu Photonics K.K.) equipped with a 384ch dispenser. After 10 min, allylisothiocyanate (12 μL) was further added at a final concentration of 20 μM, and changes in the relative fluorescence intensity after addition of allylisothiocyanate were measured for 5 min.
Test Substance Preparation
The test substance was dissolved in dimethyl sulfoxide and serially diluted with an assay buffer containing 0.1% bovine serum albumin (1×HBSS, 20 mM HEPES, pH 7.2) to a 4.8-fold concentration of the evaluation concentration. Allylisothiocyanate, which is a known TRPA1 activator, was dissolved in dimethyl sulfoxide to 100 mM, and further diluted 5-fold (100 μM) of the final concentration, like the test substance.
Calculation of Antagonist Activity
Under the test substance-free conditions, the maximum variation range of the fluorescence intensity before and after allylisothiocyanate stimulation was defined to be 100% activity rate, and the variation range before and after buffer stimulation was defined as 0% activity rate. The activity rate on addition of the test substance was determined, and the numerical value obtained by subtracting the activity rate from 100 was defined to be an inhibitory rate. IC50, which is the concentration of the test substance necessary for reaching the 50% inhibitory rate, was calculated from the sigmoid approximate curve by a spreadsheet software Excel-Fit.
Background: A change in cytosolic calcium serves as a functional read-out for many receptors and channels.
`O=C(NCc1cccc(OCc2ccncc2)c1)[C@@H]1CCCN1S(=O)(=O)c1cc2cc(F)ccc2o1` [Example 13, (2S)-1-(5-fluorobenzofuran-2-yl)sulfonyl-N-[[3-(4-pyridylmethoxy)phenyl]methyl]pyrrolidine-2-carboxamide]: the IC50 (in general, the point on the concentration scale where inhibition reaches its midpoint) was 19 nM.
Under `O=C(NCc1cccc(OCc2cccnc2)c1)[C@@H]1CCCN1S(=O)(=O)c1cc2cc(F)ccc2o1` [Example 14, (2S)-1-(5-fluorobenzofuran-2-yl)sulfonyl-N-[[3-(3-pyridylmethoxy)phenyl]-methyl]pyrrolidine-2-carboxamide] stands 20 nM; under `O=C(NCc1cccc(OCc2ccccn2)c1)[C@@H]1CCCN1S(=O)(=O)c1cc2cc(F)ccc2o1` [Example 15, (2S)-1-(5-fluorobenzofuran-2-yl)sulfonyl-N-[[3-(2-pyridylmethoxy)phenyl]-methyl]pyrrolidine-2-carboxamide], 100 nM.
Under `O=C(NCc1cccc(OCc2ccnc(C(F)(F)F)c2)c1)[C@@H]1CCCN1S(=O)(=O)c1cc2cc(F)ccc2o1` [Example 16, (2S)-1-(5-fluorobenzofuran-2-yl)sulfonyl-N-[[3-[[2-(trifluoromethyl)-4-pyridyl]methoxy]phenyl]-methyl]pyrrolidine-2-carboxamide] stands 2.8 nM; under `CN(C)c1cc(COc2cccc(CNC(=O)[C@@H]3CCCN3S(=O)(=O)c3cc4cc(F)ccc4o3)c2)ccn1` [Example 17, (2S)-N-[[3-[[2-(dimethylamino)-4-pyridyl]methoxy]phenyl]-methyl]-1-(5-fluorobenzofuran-2-yl)sulfonyl-pyrrolidine-2-carboxamide], 15 nM.
As to `Cc1ccc(COc2cccc(CNC(=O)[C@@H]3CCCN3S(=O)(=O)c3cc4cc(F)ccc4o3)c2)cn1` [Example 19, (2S)-1-(5-fluorobenzofuran-2-yl)sulfonyl-N-[[3-[(6-methyl-3-pyridyl)methoxy]phenyl]-methyl]pyrrolidine-2-carboxamide], the IC50 turned out to be 14 nM.
Consider `O=C(NCc1cccc(OCc2ccc(C(F)(F)F)nc2)c1)[C@@H]1CCCN1S(=O)(=O)c1cc2cc(F)ccc2o1` [Example 20, (2S)-1-(5-fluorobenzofuran-2-yl)sulfonyl-N-[[3-[[6-(trifluoromethyl)-3-pyridyl]methoxy]phenyl]-methyl]pyrrolidine-2-carboxamide], for which the IC50 is 1.4 nM.
Under `CN(C)c1ccc(COc2cccc(CNC(=O)[C@@H]3CCCN3S(=O)(=O)c3cc4cc(F)ccc4o3)c2)cn1` [Example 21, (2S)-N-[[3-[[6-(dimethylamino)-3-pyridyl]methoxy]phenyl]-methyl]-1-(5-fluorobenzofuran-2-yl)sulfonyl-pyrrolidine-2-carboxamide] stands 34 nM.
Under `CN(C)c1cncc(COc2cccc(CNC(=O)[C@@H]3CCCN3S(=O)(=O)c3cc4cc(F)ccc4o3)c2)c1` [Example 23, (2S)-N-[[3-[[5-(dimethylamino)-3-pyridyl]methoxy]phenyl]-methyl]-1-(5-fluorobenzofuran-2-yl)sulfonyl-pyrrolidine-2-carboxamide] stands 110 nM; under `CN1CCOc2cc(COc3cccc(CNC(=O)[C@@H]4CCCN4S(=O)(=O)c4cc5cc(F)ccc5o4)c3)cnc21` [Example 24, (2S)-1-(5-fluorobenzofuran-2-yl)sulfonyl-N-[[3-[(4-methyl-2,3-diphydropyrido[3,2-b][1,4]oxazin-7-yl)methoxy]-phenyl]methyl]pyrrolidine-2-carboxamide], 410 nM; under `O=C(NCc1cccc(OCc2cccc(C(F)(F)F)n2)c1)[C@@H]1CCCN1S(=O)(=O)c1cc2cc(F)ccc2o1` [Example 25, (2S)-1-(5-fluorobenzofuran-2-yl)sulfonyl-N-[[3-[[6-(trifluoromethyl)-2-pyridyl]methoxy]phenyl]-methyl]pyrrolidine-2-carboxamide], 11 nM.
On to `CN(C)c1cccc(COc2cccc(CNC(=O)[C@@H]3CCCN3S(=O)(=O)c3cc4cc(F)ccc4o3)c2)n1` [Example 26, (2S)-N-[[3-[[6-(dimethylamino)-2-pyridyl]methoxy]phenyl]-methyl]-1-(5-fluorobenzofuran-2-yl)sulfonyl-pyrrolidine-2-carboxamide], for which the IC50 turned out to be 23 nM.
The result for `O=C(NCc1cccc(OCc2cccc(CN3CCOCC3)c2)c1)[C@@H]1CCCN1S(=O)(=O)c1cc2cc(F)ccc2o1` [Example 27, (2S)-1-(5-fluorobenzofuran-2-yl)sulfonyl-N-[[3-[[3-(morpholinomethyl)phenyl]-methoxy]phenyl]methyl]-pyrrolidine-2-carboxamide] reads 8.2 nM; that for `O=C(NCc1cccc(OCc2cccc(OCCN3CCOCC3)c2)c1)[C@@H]1CCCN1S(=O)(=O)c1cc2cc(F)ccc2o1` [Example 28, (2S)-1-(5-fluorobenzofuran-2-yl)sulfonyl-N-[[3-[[3-(2-morpholinoethoxy)phenyl]-methoxy]phenyl]methyl]-pyrrolidine-2-carboxamide], 56 nM; that for `COC(=O)C(Oc1cccc(CNC(=O)[C@@H]2CCCN2S(=O)(=O)c2cc3cc(F)ccc3o2)c1)c1ccccc1` (stereo partly drawn) [Example 29, methyl 2-[3-[[[(2S)-1-(5-fluorobenzofuran-2-yl)sulfonylpyrrolinidine-2-carbonyl]amino]methyl]-phenoxy]-2-phenylacetate], 340 nM.
The result for `O=C(NCc1cccc(OCC2CCOCC2)c1)[C@@H]1CCCN1S(=O)(=O)c1cc2cc(F)ccc2o1` [Example 30, (2S)-1-(5-fluorobenzofuran-2-yl)sulfonyl-N-[[3-(tetrahydropyran-4-ylmethoxy)phenyl]-methyl]pyrrolidine-2-carboxamide] reads 8.3 nM.
Under `O=C(NCc1cccc(OCC2CCCOC2)c1)[C@@H]1CCCN1S(=O)(=O)c1cc2cc(F)ccc2o1` (stereo partly drawn) [Example 31, (2S)-1-(5-fluorobenzofuran-2-yl)sulfonyl-N-[[3-(tetrahydropyran-3-ylmethoxy)phenyl]-methyl]pyrrolidine-2-carboxamide] stands 4.3 nM.
Turning to `O=C(NCc1cccc(OCC2CCOC2)c1)[C@@H]1CCCN1S(=O)(=O)c1cc2cc(F)ccc2o1` (stereo partly drawn) [Example 32, (2S)-1-(5-fluorobenzofuran-2-yl)sulfonyl-N-[[3-(tetrahydrofuran-3-ylmethoxy)phenyl]-methyl]pyrrolidine-2-carboxamide], the IC50 was 31 nM.
Under `O=C(NCc1cccc(OC2CCOCC2)c1)[C@@H]1CCCN1S(=O)(=O)c1cc2cc(F)ccc2o1` [Example 33, (2S)-1-(5-fluorobenzofuran-2-yl)sulfonyl-N-[(3-tetrahydropyran-4-yloxyphenyl)methyl]-pyrrolidine-2-carboxamide] stands 160 nM; under `O=C(NCc1cc(F)cc(OCc2ccccc2)c1)[C@@H]1CCCN1S(=O)(=O)c1cc2cc(F)ccc2o1` [Example 34, (2S)-N-[(3-benzyloxy-5-fluoro-phenyl)methyl]-1-(5-fluorobenzofuran-2-yl)sulfonyl-pyrrolidine-2-carboxamide], 1.6 nM; under `O=C(NCc1cc(F)cc(OCc2ccncc2)c1)[C@@H]1CCCN1S(=O)(=O)c1cc2cc(F)ccc2o1` [Example 35, (2S)-1-(5-fluorobenzofuran-2-yl)sulfonyl-N-[[3-fluoro-5-(4-pyridylmethoxy)-phenyl]methyl]-pyrrolidine-2-carboxamide], 8 nM.
